Measured values reported in paper doi:10.64898/2025.12.03.692196v2, “Dimerization and Threonine-Dependent Stabilization Govern Human YRDC Catalysis” (biorxiv, 2026).
Where a chain is given by its changes, count along the chain named.

How the values were obtained:
Assay in all cases: biochemical
Parameters in all cases: SYPRO Orange DSF; apparent Kd from Tm versus ligand concentration
[1] = target: T1, YRDCWT (human YRDC, ΔN43) (Homo sapiens, UniProt Q86U90); details: With ATP; DSF apparent KD
T1 construct: lacks first 43 residues (N-terminal truncation); N-terminal His6 tag removed with TEV; E. coli BL21(DE3); homodimer
T1 sequence (Q86U90 with tags, fused parts or gaps DEL265-265): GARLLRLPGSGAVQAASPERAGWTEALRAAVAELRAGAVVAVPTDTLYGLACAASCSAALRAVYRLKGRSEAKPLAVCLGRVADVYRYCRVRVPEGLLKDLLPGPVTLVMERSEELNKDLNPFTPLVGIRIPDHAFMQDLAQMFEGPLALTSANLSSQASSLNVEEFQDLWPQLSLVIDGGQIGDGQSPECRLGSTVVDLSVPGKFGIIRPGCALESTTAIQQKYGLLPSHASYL
Method: (§1) Reactions were prepared in a MicroAmp™ 96-well optical reaction plate (Fisher Scientific) with a final volume of 20 μL per well, in assay buffer (50 mM Tricine pH 8.5, 10 mM MgCl₂) with 8 μM YRDC, and 5X SYPRO Orange dye (Invitrogen). The concentrations of substrates, including ATP, L-threonine, and NaHCO3, were varied based on the reaction type. In most cases wild-type YRDC and its mutants were assessed under various conditions, including enzyme alone, enzyme with ATP concentrations ranging from 10 µM to 500 µM, enzyme with L-threonine concentrations between 0.5 mM and 50 mM, either in the presence or absence of 500 µM ATP, and enzyme with NaHCO3 concentrations from 10 mM to 500 mM in the presence of both 500 µM ATP and 25 mM L-threonine. Fluorescence emission was recorded using Applied Biosystems® QuantStudio 1 Real-Time PCR system (λex = 520 nm, λem = 558 nm). Temperature increases were performed over the range of 25–95 °C, with increments of 1 °C/min, while changes in fluorescence intensity were continuously measured. Each experiment was conducted in triplicate, and the data are presented as the mean ± standard deviation. Control reactions, prepared without the enzyme, were used to account for background fluorescence and were subtracted from experimental measurements. Melting curves were fitted using a Boltzmann sigmoidal model, and thermal stability (Tₘ) values were determined from the inflection point of the curve. The dissociation constant (KD) of the enzyme with each substrate is calculated based on the DSF single binding equation[45]: [drawing 1] Where Tm,0 and Tm,∞refer to the melting temperature (Tm) in °C at zero and infinite ligand concentrations, respectively, P represents the protein concentration and Kd,app is the apparent dissociation constant obtained from ligand-dependent thermal stabilisation.

[2] = target: T2, YRDCWT (human YRDC, ΔN43) (Homo sapiens, UniProt Q86U90); details: DSF apparent KD
T2 construct: lacks first 43 residues (N-terminal truncation); N-terminal His6 tag removed with TEV; E. coli BL21(DE3); homodimer
T2 sequence (Q86U90 44-279 C121A): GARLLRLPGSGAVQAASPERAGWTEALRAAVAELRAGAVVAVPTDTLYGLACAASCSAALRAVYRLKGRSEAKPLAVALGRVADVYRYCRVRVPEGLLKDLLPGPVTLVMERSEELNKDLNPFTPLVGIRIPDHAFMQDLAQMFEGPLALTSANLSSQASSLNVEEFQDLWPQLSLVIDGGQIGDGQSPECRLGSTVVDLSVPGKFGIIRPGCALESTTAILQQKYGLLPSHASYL
Method: as §1

[3] = target: T3, YRDCWT (human YRDC, ΔN43) (Homo sapiens, UniProt Q86U90, I221T); details: DSF apparent KD
T3 construct: lacks first 43 residues (N-terminal truncation); N-terminal His6 tag removed with TEV; E. coli BL21(DE3); homodimer
T3 sequence (Q86U90 44-279 I221T): T2 sequence (Q86U90 44-279 C121A) with A78C, I178T
Method: as §1

[4] = target: T4, (human YRDC, ΔN43) (Homo sapiens, UniProt Q86U90, A84V); details: With ATP and L-threonine; DSF apparent KD
T4 construct: lacks first 43 residues (N-terminal truncation); N-terminal His6 tag removed with TEV; E. coli BL21(DE3); homodimer
T4 sequence (Q86U90 44-279 A84V): T2 sequence (Q86U90 44-279 C121A) with A41V, A78C
Method: as §1

[5] = target: T5, YRDCS195A (Homo sapiens, UniProt Q86U90, S238A); details: With L-threonine; DSF apparent KD
T5 construct: gene YRDC; lacks N-terminal 43 residues; printed numbering S195A is of the truncated protein
T5 sequence (Q86U90 1-279 S238A): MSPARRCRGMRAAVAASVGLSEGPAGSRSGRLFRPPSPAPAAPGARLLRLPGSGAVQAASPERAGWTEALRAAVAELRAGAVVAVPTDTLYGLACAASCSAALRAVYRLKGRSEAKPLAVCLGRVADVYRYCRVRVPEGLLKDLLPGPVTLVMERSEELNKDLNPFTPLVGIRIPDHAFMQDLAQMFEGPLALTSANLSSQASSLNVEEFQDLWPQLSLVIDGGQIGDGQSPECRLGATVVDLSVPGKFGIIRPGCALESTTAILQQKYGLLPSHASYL
Method: as §1

[6] = target: T6, YRDCWT (human YRDC, ΔN43) (Homo sapiens, UniProt Q86U90, R253K); details: With L-threonine; DSF apparent KD
T6 construct: lacks first 43 residues (N-terminal truncation); N-terminal His6 tag removed with TEV; E. coli BL21(DE3); homodimer
T6 sequence (Q86U90 44-279 R253K): T2 sequence (Q86U90 44-279 C121A) with A78C, R210K
Method: as §1

[7] = target: T7, YRDCWT (human YRDC, ΔN43) (Homo sapiens, UniProt Q86U90, C121A); details: With L-threonine; DSF apparent KD
T7 construct: lacks first 43 residues (N-terminal truncation); N-terminal His6 tag removed with TEV; E. coli BL21(DE3); homodimer
T7 sequence (Q86U90 44-279 C121A): T2 sequence (Q86U90 44-279 C121A)
Method: as §1

C[C@@H](O)[C@H](N)C(=O)O [L-threonine] was tested. Which Kd [1] did it give?
The Kd was 2100 ± 700 µM.

What about the Kd ([2]; With ATP) of the same molecule?
Its Kd is 1200 ± 300 µM.

What about the Kd ([3]; With ATP) of the same molecule?
The Kd was 400 ± 100 µM.

What does the source list for O=C(O)O [bicarbonate]?
Kd ([2]; With ATP and L-threonine): 3700 ± 2000 µM; Kd ([3]; With ATP and L-threonine): 8300 ± 4200 µM; Kd [4]: 6500 ± 2000 µM

How did the Kd [5] turn out when Nc1ncnc2c1ncn2[C@@H]1O[C@H](COP(=O)(O)OP(=O)(O)OP(=O)(O)O)[C@@H](O)[C@H]1O [ATP] was run?
Its Kd is 48.9 ± 37.8 µM.

What about the Kd [6] of the same molecule?
Its Kd is 148 ± 112 µM.

And the Kd [7]?
The Kd was 133 ± 29.7 µM.
